Experimental data taken from US20080009418A1, “Selective Inhibitors” (Alchemia LTD., priority 2004, published 2008).

Legend:
Human δ-opioid (DOP) = target: T1, Human δ-opioid (DOP) (Homo sapiens, UniProt P41143); test: Radioligand binding, human δ-opioid (DOP) membranes, FlashPlate, [3H]-Bremazocine; settings: compound at 10 μM, [3H]-Bremazocine
T1 construct: purchased Perkin Elmer Biosignal
Summary of the method: (§1)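 Cloned human receptor membranes were coated onto FlashPlate wells and incubated with radioligand and compound (added from a 0.5 mM DMSO daughter plate) for 1 hour at room temperature in the dark. Scintillation counting gave percent inhibition, with DMSO defining total and reference ligand defining non-specific binding.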

Human κ-Opioid (KOP) = target: T2, Human κ-Opioid (KOP) (Homo sapiens, UniProt P41145); test: Radioligand binding, human κ-opioid (KOP) membranes, filtration, [3H]-Diprenorphine; settings: compound at 10 μM, [3H]-Diprenorphine
T2 construct: purchased Perkin Elmer Biosignal
T2 sequence (P41145 whole entry): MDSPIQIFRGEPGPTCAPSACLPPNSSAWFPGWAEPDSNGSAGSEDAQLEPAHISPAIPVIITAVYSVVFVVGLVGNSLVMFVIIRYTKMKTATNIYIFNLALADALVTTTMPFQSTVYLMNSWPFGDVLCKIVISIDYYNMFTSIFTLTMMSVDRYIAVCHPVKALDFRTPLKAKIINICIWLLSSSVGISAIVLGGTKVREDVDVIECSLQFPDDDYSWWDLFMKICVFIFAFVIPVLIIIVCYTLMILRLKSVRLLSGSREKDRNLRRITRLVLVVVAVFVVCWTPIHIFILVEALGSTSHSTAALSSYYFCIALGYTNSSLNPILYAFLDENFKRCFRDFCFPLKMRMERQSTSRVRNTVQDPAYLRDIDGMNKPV
Summary of the method: (§2)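 Membranes from cloned human receptors were incubated with compound and radioligand for 1 hour at room temperature. Bound ligand was collected on 0.3% PEI-soaked filters, washed with cold 50 mM Tris-HCl pH 7.4, and counted by scintillation. Percent inhibition was computed against DMSO totals and reference-ligand nonspecific wells.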

Human Melanocortin (MC3) = target: T3, Human Melanocortin (MC3) (Homo sapiens, UniProt P41968); test: Radioligand binding, human melanocortin MC3 membranes, FlashPlate, [125I]-NDP-αMSH; settings: compound at 10 μM, [125I]-NDP-αMSH
T3 construct: purchased Perkin Elmer Biosignal
T3 sequence (P41968 whole entry): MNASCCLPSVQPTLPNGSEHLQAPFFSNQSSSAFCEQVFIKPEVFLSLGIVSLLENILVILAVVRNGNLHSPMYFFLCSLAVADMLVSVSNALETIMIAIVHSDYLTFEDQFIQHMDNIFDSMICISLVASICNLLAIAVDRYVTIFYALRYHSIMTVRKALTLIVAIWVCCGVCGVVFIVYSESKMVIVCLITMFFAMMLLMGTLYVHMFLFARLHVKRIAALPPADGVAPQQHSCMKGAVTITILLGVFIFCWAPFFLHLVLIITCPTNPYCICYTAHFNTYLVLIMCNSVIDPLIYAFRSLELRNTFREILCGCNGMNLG
Summary of the method: as §1

Human Melanocortin (MC4) = target: T4, Human Melanocortin (MC4) (Homo sapiens, UniProt P32245); test: Radioligand binding, human melanocortin MC4 membranes, FlashPlate, [125I]-NDP-αMSH; settings: compound at 10 μM, [125I]-NDP-αMSH
T4 construct: purchased Perkin Elmer Biosignal
T4 sequence (P32245 whole entry): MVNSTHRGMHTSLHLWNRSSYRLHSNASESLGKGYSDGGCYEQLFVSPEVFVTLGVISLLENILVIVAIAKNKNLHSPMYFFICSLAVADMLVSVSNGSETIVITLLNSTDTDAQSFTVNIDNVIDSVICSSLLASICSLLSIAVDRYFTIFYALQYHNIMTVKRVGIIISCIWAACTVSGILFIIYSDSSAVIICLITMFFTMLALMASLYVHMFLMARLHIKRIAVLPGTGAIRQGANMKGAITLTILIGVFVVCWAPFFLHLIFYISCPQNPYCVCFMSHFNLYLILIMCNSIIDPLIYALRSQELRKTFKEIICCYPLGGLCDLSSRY
Summary of the method: as §1

Human melanocortin (MC5) = target: T5, Human melanocortin (MC5) (Homo sapiens, UniProt P33032); test: Radioligand binding, human melanocortin MC5 membranes, FlashPlate, [125I]-NDP-αMSH; settings: compound at 10 μM, [125I]-NDP-αMSH
T5 construct: purchased Perkin Elmer Biosignal
T5 sequence (P33032 whole entry): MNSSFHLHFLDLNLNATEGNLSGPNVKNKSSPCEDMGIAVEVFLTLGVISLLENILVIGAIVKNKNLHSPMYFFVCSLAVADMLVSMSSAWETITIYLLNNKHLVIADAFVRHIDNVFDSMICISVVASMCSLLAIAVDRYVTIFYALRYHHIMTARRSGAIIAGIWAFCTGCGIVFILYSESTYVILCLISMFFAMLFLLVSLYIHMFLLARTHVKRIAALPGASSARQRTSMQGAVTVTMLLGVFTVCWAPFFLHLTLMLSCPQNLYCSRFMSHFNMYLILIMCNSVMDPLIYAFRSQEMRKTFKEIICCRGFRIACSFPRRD
Summary of the method: as §1

[1] = target: T6, Human melanin-concentrating hormone (MCH1) (Homo sapiens, UniProt Q99705); test: Radioligand binding, human melanin-concentrating hormone MCH1 membranes, FlashPlate, [125I]-S36057; settings: compound at 10 μM; for A6: inhibition of radioligand binding, human melanin-concentrating hormone (MCH1): [125I]-S36057
T6 construct: purchased Perkin Elmer Biosignal
T6 sequence (Q99705 whole entry): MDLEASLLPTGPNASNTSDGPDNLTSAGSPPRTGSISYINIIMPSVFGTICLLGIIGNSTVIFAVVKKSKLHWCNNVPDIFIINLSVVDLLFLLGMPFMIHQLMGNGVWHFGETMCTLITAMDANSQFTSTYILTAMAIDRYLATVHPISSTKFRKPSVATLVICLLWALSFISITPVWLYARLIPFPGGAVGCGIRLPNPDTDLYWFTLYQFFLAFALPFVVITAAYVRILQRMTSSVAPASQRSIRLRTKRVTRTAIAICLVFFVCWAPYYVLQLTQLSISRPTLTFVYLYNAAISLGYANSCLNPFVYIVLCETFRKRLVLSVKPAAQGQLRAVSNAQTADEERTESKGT
Summary of the method: as §1

Human μ-opioid (MOP) = target: T7, Human μ-opioid (MOP) (Homo sapiens, UniProt P35372); test: Radioligand binding, human μ-opioid (MOP) membranes, FlashPlate, [3H]-Naloxone; settings: compound at 10 μM, [3H]-Naloxone
T7 construct: purchased Perkin Elmer Biosignal
T7 sequence (P35372 whole entry): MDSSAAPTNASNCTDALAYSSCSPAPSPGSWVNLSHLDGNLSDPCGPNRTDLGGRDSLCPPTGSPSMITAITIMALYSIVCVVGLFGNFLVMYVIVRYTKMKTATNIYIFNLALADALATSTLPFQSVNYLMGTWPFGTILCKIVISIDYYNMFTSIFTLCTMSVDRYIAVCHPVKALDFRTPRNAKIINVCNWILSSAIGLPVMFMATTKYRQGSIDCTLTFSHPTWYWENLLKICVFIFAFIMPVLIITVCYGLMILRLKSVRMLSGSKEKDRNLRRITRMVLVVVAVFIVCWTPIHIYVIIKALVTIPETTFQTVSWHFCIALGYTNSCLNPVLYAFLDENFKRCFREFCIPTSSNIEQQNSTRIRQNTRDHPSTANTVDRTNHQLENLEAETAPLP
Summary of the method: as §1

Human neurokinin (NK1) = target: T8, Human neurokinin (NK1) (Homo sapiens, UniProt P25103); test: Radioligand binding, human neurokinin NK1 membranes, filtration, [125I]-Substance P; settings: compound at 10 μM, [125I]-Substance P
T8 construct: purchased Perkin Elmer Biosignal
T8 sequence (P25103 whole entry): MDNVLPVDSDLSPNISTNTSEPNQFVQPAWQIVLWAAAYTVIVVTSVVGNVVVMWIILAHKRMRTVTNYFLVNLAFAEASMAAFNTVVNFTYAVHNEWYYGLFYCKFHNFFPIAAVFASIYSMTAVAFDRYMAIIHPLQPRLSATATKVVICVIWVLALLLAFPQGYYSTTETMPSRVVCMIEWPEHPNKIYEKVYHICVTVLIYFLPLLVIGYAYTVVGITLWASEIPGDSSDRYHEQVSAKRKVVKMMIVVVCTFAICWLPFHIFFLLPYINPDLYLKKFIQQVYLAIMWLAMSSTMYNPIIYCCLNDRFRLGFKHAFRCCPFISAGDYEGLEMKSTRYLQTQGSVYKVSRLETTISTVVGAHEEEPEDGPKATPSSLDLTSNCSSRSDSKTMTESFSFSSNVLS
Summary of the method: as §2

[2] = target: T9, Human neuropeptide Y (NPY-Y1) (Homo sapiens, UniProt P25929); test: Radioligand binding, human neuropeptide Y NPY-Y1 membranes, FlashPlate, [125I]-PYY; settings: compound at 10 μM, [125I]-PYY
T9 construct: purchased Perkin Elmer Biosignal
T9 sequence (P25929 1-384): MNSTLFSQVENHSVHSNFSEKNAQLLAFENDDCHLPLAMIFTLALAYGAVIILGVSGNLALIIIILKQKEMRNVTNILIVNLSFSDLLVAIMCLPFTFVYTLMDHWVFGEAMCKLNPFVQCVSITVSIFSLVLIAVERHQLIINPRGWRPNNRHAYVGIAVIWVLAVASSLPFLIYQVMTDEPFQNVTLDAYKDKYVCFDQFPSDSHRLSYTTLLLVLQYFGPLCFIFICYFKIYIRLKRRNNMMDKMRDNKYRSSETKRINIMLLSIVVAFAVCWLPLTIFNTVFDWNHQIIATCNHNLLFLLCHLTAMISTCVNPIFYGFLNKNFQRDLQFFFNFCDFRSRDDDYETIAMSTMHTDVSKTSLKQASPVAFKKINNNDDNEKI
Summary of the method: as §1

Human opioid (ORL1) = target: T10, Human opioid (ORL1) (Homo sapiens, UniProt P41146); test: Radioligand binding, human opioid ORL1 membranes, FlashPlate, [125I]-Nociceptin; settings: compound at 10 μM, [125I]-Nociceptin
T10 construct: purchased Perkin Elmer Biosignal
T10 sequence (P41146 whole entry): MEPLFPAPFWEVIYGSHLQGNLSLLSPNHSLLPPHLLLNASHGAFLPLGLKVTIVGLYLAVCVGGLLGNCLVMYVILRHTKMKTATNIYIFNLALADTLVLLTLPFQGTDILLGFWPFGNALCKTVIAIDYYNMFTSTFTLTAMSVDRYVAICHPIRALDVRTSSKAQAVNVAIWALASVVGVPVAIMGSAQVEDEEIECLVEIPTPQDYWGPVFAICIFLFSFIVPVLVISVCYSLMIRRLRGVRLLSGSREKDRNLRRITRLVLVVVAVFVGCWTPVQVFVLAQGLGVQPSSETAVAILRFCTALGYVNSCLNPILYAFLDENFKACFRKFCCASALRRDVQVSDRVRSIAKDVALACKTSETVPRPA
Summary of the method: as §1

Mouse urotensin (mUR2) = target: T11, Mouse urotensin (mUR2) (Mus musculus, UniProt Q8VIH9); test: Radioligand binding, mouse urotensin mUR2 membranes, FlashPlate, [125I]-Urotensin II; settings: compound at 10 μM, [125I]-Urotensin II
T11 construct: purchased Perkin Elmer Biosignal
T11 sequence (Q8VIH9 1-385): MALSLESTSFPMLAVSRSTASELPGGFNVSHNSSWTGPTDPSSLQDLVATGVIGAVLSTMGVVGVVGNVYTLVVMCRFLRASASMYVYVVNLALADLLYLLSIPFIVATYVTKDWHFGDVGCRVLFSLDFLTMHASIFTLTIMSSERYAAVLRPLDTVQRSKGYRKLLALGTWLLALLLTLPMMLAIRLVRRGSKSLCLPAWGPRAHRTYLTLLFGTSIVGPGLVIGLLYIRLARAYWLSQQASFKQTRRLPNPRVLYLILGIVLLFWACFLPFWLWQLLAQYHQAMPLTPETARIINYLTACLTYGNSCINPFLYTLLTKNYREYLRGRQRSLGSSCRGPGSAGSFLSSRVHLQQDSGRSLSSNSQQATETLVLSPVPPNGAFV
Summary of the method: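 Cloned mouse urotensin (mUR2) receptor membranes from Perkin Elmer Biosignal were immobilized in FlashPlate microplates using a proprietary coating. Each well got 19.5 μl buffer, then 0.5 μl of DMSO, reference ligand, or compound. Adding 5 μl of [125I]-Urotensin II, diluted to 5× final concentration in binding buffer, started binding. Plates were sealed with TopSeal-A and incubated 1 hour at room temperature in the dark. Wells were counted for 30 seconds each on a TopCount after a 60-second delay, and percentage inhibition was calculated.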

T1 sequence (P41143 whole entry): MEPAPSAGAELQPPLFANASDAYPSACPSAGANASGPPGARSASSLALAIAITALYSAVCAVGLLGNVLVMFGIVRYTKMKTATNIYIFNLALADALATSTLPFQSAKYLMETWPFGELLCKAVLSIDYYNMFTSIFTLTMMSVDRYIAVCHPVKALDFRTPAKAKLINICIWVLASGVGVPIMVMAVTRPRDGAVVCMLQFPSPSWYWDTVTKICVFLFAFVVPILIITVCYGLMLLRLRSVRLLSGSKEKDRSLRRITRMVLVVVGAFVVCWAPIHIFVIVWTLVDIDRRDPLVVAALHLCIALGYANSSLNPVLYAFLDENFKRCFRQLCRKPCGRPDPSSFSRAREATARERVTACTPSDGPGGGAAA

## N=C(N)NCCC(=O)N[C@H]1C(OCc2ccc(Cl)cc2)O[C@H](COCc2ccc(Cl)cc2)[C@@H](O)[C@@H]1OCc1ccc2ccccc2c1 (stereo partly shown) [compound 532]
Human δ-opioid (DOP)
  A1: inhibition of radioligand binding, human δ-opioid (DOP): − (“−” indicates less than 50% inhibition at 10 μM)
Human κ-Opioid (KOP)
  A2: inhibition of radioligand binding, human κ-opioid (KOP): + (“+” indicates greater than 50% inhibition at 10 μM)
Human Melanocortin (MC3)
  A3: inhibition of radioligand binding, human melanocortin (MC3): + (“+” indicates greater than 50% inhibition at 10 μM)
Human Melanocortin (MC4)
  A4: inhibition of radioligand binding, human melanocortin (MC4): + (“+” indicates greater than 50% inhibition at 10 μM)
Human melanocortin (MC5)
  A5: inhibition of radioligand binding, human melanocortin (MC5): + (“+” indicates greater than 50% inhibition at 10 μM)
[1]
  A6: inhibition of radioligand binding, human melanin-concentrating hormone (MCH1): + (“+” indicates greater than 50% inhibition at 10 μM)
Human μ-opioid (MOP)
  A7: inhibition of radioligand binding, human μ-opioid (MOP): + (“+” indicates greater than 50% inhibition at 10 μM)
Human neurokinin (NK1)
  A8: inhibition of radioligand binding, human neurokinin (NK1): + (“+” indicates greater than 50% inhibition at 10 μM)
[2]
  A9: inhibition of radioligand binding, human neuropeptide Y (NPY-Y1): − (“−” indicates less than 50% inhibition at 10 μM)
Human opioid (ORL1)
  A10: inhibition of radioligand binding, human opioid (ORL1): + (“+” indicates greater than 50% inhibition at 10 μM)
Mouse urotensin (mUR2)
  A11: inhibition of radioligand binding, mouse urotensin (mUR2): − (“−” indicates less than 50% inhibition at 10 μM)

## NCCCC(=O)NC1C(OCc2ccc(Cl)cc2)OC(COCc2ccc3ccccc3c2)C(O)C1OCc1ccc(Cl)cc1 (single isomer, unassigned) [compound 489]
Human δ-opioid (DOP)
  A1: inhibition of radioligand binding, human δ-opioid (DOP): − (“−” indicates less than 50% inhibition at 10 μM)
Human κ-Opioid (KOP)
  A2: inhibition of radioligand binding, human κ-opioid (KOP): − (“−” indicates less than 50% inhibition at 10 μM)
Human Melanocortin (MC3)
  A3: inhibition of radioligand binding, human melanocortin (MC3): + (“+” indicates greater than 50% inhibition at 10 μM)
Human Melanocortin (MC4)
  A4: inhibition of radioligand binding, human melanocortin (MC4): + (“+” indicates greater than 50% inhibition at 10 μM)
Human melanocortin (MC5)
  A5: inhibition of radioligand binding, human melanocortin (MC5): + (“+” indicates greater than 50% inhibition at 10 μM)
[1]; 10 µM
  A6: inhibition of radioligand binding, human melanin-concentrating hormone (MCH1): − (“−” indicates less than 50% inhibition at 10 μM)
Human μ-opioid (MOP)
  A7: inhibition of radioligand binding, human μ-opioid (MOP): + (“+” indicates greater than 50% inhibition at 10 μM)
Human neurokinin (NK1)
  A8: inhibition of radioligand binding, human neurokinin (NK1): + (“+” indicates greater than 50% inhibition at 10 μM)
[2]
  A9: inhibition of radioligand binding, human neuropeptide Y (NPY-Y1): − (“−” indicates less than 50% inhibition at 10 μM)
Human opioid (ORL1)
  A10: inhibition of radioligand binding, human opioid (ORL1): + (“+” indicates greater than 50% inhibition at 10 μM)
Mouse urotensin (mUR2)
  A11: inhibition of radioligand binding, mouse urotensin (mUR2): − (“−” indicates less than 50% inhibition at 10 μM)

## N=C(N)NCCC(=O)NC1C(OCc2ccc(Cl)cc2)OC(COCc2ccc3ccccc3c2)C(O)C1OCc1ccc(-c2ccccc2)cc1 (stereo not shown) [compound 432]
Human δ-opioid (DOP); human DOP membranes
  A1: inhibition of radioligand binding: − (“−” indicates less than 50% inhibition at 10 μM)
Human κ-Opioid (KOP); human KOP membranes
  A2: inhibition of radioligand binding: − (“−” indicates less than 50% inhibition at 10 μM)
Human Melanocortin (MC3); human MC3 membranes
  A3: inhibition of radioligand binding: + (“+” indicates greater than 50% inhibition at 10 μM)
Human Melanocortin (MC4); human MC4 membranes
  A4: inhibition of radioligand binding: + (“+” indicates greater than 50% inhibition at 10 μM)
Human melanocortin (MC5); human MC5 membranes
  A5: inhibition of radioligand binding: + (“+” indicates greater than 50% inhibition at 10 μM)
[1]; [125I]-S36057, human MCH1 membranes
  A6: inhibition of radioligand binding: + (“+” indicates greater than 50% inhibition at 10 μM)
Human μ-opioid (MOP); human MOP membranes
  A7: inhibition of radioligand binding: − (“−” indicates less than 50% inhibition at 10 μM)
Human neurokinin (NK1); human NK1 membranes
  A8: inhibition of radioligand binding: + (“+” indicates greater than 50% inhibition at 10 μM)
[2]; human NPY-Y1 membranes
  A9: inhibition of radioligand binding: − (“−” indicates less than 50% inhibition at 10 μM)
Human opioid (ORL1); human ORL1 membranes
  A10: inhibition of radioligand binding: − (“−” indicates less than 50% inhibition at 10 μM)
Mouse urotensin (mUR2); mouse mUR2 membranes
  A11: inhibition of radioligand binding: − (“−” indicates less than 50% inhibition at 10 μM)

## NCCC(=O)NC1C(OCc2ccc(Cl)cc2)OC(COCc2ccccc2)C(O)C1OCc1ccc2ccccc2c1 (single isomer, unassigned) [compound 479]
Human δ-opioid (DOP)
  A1: inhibition of radioligand binding, human δ-opioid (DOP): − (“−” indicates less than 50% inhibition at 10 μM)
Human κ-Opioid (KOP)
  A2: inhibition of radioligand binding, human κ-opioid (KOP): − (“−” indicates less than 50% inhibition at 10 μM)
Human Melanocortin (MC3)
  A3: inhibition of radioligand binding, human melanocortin (MC3): − (“−” indicates less than 50% inhibition at 10 μM)
Human Melanocortin (MC4); 10 µM
  A4: inhibition of radioligand binding, human melanocortin (MC4): − (“−” indicates less than 50% inhibition at 10 μM)
Human melanocortin (MC5); 10 µM
  A5: inhibition of radioligand binding, human melanocortin (MC5): − (“−” indicates less than 50% inhibition at 10 μM)
[1]; 10 µM
  A6: inhibition of radioligand binding, human melanin-concentrating hormone (MCH1): − (“−” indicates less than 50% inhibition at 10 μM)
Human μ-opioid (MOP); 10 µM
  A7: inhibition of radioligand binding, human μ-opioid (MOP): − (“−” indicates less than 50% inhibition at 10 μM)
Human neurokinin (NK1)
  A8: inhibition of radioligand binding, human neurokinin (NK1): + (“+” indicates greater than 50% inhibition at 10 μM)
[2]
  A9: inhibition of radioligand binding, human neuropeptide Y (NPY-Y1): − (“−” indicates less than 50% inhibition at 10 μM)
Human opioid (ORL1)
  A10: inhibition of radioligand binding, human opioid (ORL1): − (“−” indicates less than 50% inhibition at 10 μM)
Mouse urotensin (mUR2)
  A11: inhibition of radioligand binding, mouse urotensin (mUR2): − (“−” indicates less than 50% inhibition at 10 μM)

## COCC1OC(OCCc2ccccc2)C(NC(=O)CNC(=N)N)C(OCc2ccc(-c3ccccc3)cc2)C1O (stereo not shown) [compound 548]
Human δ-opioid (DOP)
  A1: inhibition of radioligand binding, human δ-opioid (DOP): − (“−” indicates less than 50% inhibition at 10 μM)
Human κ-Opioid (KOP)
  A2: inhibition of radioligand binding, human κ-opioid (KOP): − (“−” indicates less than 50% inhibition at 10 μM)
Human Melanocortin (MC3)
  A3: inhibition of radioligand binding, human melanocortin (MC3): − (“−” indicates less than 50% inhibition at 10 μM)
Human Melanocortin (MC4)
  A4: inhibition of radioligand binding, human melanocortin (MC4): − (“−” indicates less than 50% inhibition at 10 μM)
Human melanocortin (MC5)
  A5: inhibition of radioligand binding, human melanocortin (MC5): + (“+” indicates greater than 50% inhibition at 10 μM)
[1]
  A6: inhibition of radioligand binding, human melanin-concentrating hormone (MCH1): − (“−” indicates less than 50% inhibition at 10 μM)
Human μ-opioid (MOP)
  A7: inhibition of radioligand binding, human μ-opioid (MOP): − (“−” indicates less than 50% inhibition at 10 μM)
Human neurokinin (NK1); 10 µM
  A8: inhibition of radioligand binding, human neurokinin (NK1): + (“+” indicates greater than 50% inhibition at 10 μM)
[2]
  A9: inhibition of radioligand binding, human neuropeptide Y (NPY-Y1): − (“−” indicates less than 50% inhibition at 10 μM)
Human opioid (ORL1)
  A10: inhibition of radioligand binding, human opioid (ORL1): − (“−” indicates less than 50% inhibition at 10 μM)
Mouse urotensin (mUR2)
  A11: inhibition of radioligand binding, mouse urotensin (mUR2): − (“−” indicates less than 50% inhibition at 10 μM)
